Structures can show the parent of a compound that is named as a salt.
Assays:
[1] = molecular target: GSK3β (Homo sapiens, UniProt P49841); assay: Inhibitory activity against GSK3β (33P-ATP phosphorylation of prephosphorylated GS1 peptide); assay type: biochemical; details: protocol 4: commercial GSK3beta (Millipore), 7.5 μM GS1 peptide, 10 μM ATP, 90 minutes at room temperature
Description: Test Example: Inhibitory Activity of the Medicament of the Present Invention against GSK3β: Four different protocols can be used. In a first protocol: 7.5 μM of prephosphorylated GS1 peptide and 10 μM ATP (containing 300,000 cpm of ^33P-ATP) were incubated in 25 mM Tris-HCl, pH 7.5, 0.6 mM DTT, 6 mM MgCl2, 0.6 mM EGTA, 0.05 mg/ml BSA buffer for 1 hour at room temperature in the presence of GSK3beta (total reaction volume: 100 microliters). In a second protocol: 4.1 μM of prephosphorylated GS1 peptide and 42 μM ATP (containing 260,000 cpm ^33P-ATP) were incubated in 80 mM Mes-NaOH, pH 6.5, 1 mM Mg acetate, 0.5 mM EGTA, 5 mM 2-mercaptoethanol, 0.02% Tween 20, 10% glycerol buffer for 2 hours at room temperature in the presence of GSK3beta. In a third protocol: 7.5 μM of prephosphorylated GS1 peptide and 10 μM ATP (containing 300,000 cpm of ^33P-ATP) were incubated in 50 mM Hepes, pH 7.2, 1 mM DTT, 1 mM MgCl2, 1 mM EGTA, 0.01% Tween 20 buffer for one hour at room temperature in the presence of GSK3beta (total reaction volume: 100 microliters). In a fourth protocol: 7.5 μM of prephosphorylated GS1 peptide and 10 μM ATP (containing 300,000 cpm of ^33P-ATP) were incubated in 50 mM Hepes, pH 7.2, 1 mM DTT, 1 mM MgCl2, 1 mM EGTA, 0.01% Tween 20 buffer for 90 minutes at room temperature in the presence of commercial GSK3beta (Millipore) (total reaction volume: 100 microliters). Inhibitors were solubilised in DMSO (final solvent concentration in the reaction medium, 1%). The reaction was stopped with 100 microliters of a solution made of 25 g polyphosphoric acid (85% P2O5), 126 ml 85% H3PO4, H2O to 500 ml and then diluted to 1:100 before use. An aliquot of the reaction mixture was then transferred to Whatman P81 cation exchange filters and rinsed with the solution described above. Incorporated ^33P radioactivity was determined by liquid scintillation spectrometry. The phosphorylated GS-1 peptide had the following sequence: NH2-[…](P)EDEE-COOH.(Woodgett, J. R. (1989) Analytical Biochemistry 180, 237-241.

GSK3β, sequence (P49841 whole entry): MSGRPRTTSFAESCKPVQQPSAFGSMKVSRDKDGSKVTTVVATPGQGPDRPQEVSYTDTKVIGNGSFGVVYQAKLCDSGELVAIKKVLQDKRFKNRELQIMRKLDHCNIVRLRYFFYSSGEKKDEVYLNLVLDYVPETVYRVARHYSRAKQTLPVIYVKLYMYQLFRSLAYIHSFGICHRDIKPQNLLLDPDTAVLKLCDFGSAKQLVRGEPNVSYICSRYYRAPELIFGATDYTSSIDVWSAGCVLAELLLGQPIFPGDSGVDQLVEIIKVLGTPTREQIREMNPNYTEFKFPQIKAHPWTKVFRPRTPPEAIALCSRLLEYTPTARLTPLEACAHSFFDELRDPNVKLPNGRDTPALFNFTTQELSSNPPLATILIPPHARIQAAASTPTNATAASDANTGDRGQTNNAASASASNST

Structure (SMILES): COc1ccccc1CNC1COCCn2c1nc(-c1ccncn1)cc2=O (racemic) (as salt: HCl) [compound No. 21, (+/−)-9-(2-Methoxy-benzylamino)-2-pyrimidin-4-yl-5,6,8,9-tetrahydro-7-oxa-1,4a-diaza-benzocyclohepten-4-one]
- melting point: 254 to 256 °C

Structure (SMILES): COc1ccc(S(N)(=O)=O)cc1C(=O)NC1COCCn2c1nc(-c1ccncn1)cc2=O (racemic) [compound No. 7, (+/−)-2-Methoxy-N-(4-oxo-2-pyrimidin-4-yl-5,6,8,9-tetrahydro-4H-7-oxa-1,4a-diaza-benzocyclohepten-9-yl)-5-sulfamoyl-benzamide]
- melting point: 257 to 259 °C
- IC50 [1]: 0.5 nM

Structure (SMILES): CC(=O)Oc1ccccc1C(=O)NC1COCCn2c1nc(-c1ccncn1)cc2=O (racemic) [compound No. 14, (+/−)-Acetic acid 2-(4-oxo-2-pyrimidin-4-yl-5,6,8,9-tetrahydro-4H-7-oxa-1,4a-diaza-benzocyclohepten-9-ylcarbamoyl)-phenyl ester]
- melting point: 202 to 204 °C
- IC50 [1]: 10 nM

Structure (SMILES): COc1ccc(Cl)cc1C(=O)NC1COCCn2c1nc(-c1ccncc1)cc2=O (racemic) [compound No. 19, (+/−)-5-Chloro-2-methoxy-N-(4-oxo-2-pyridin-4-yl-5,6,8,9-tetrahydro-4H-7-oxa-1,4a-diaza-benzocyclohepten-9-yl)-benzamide]
- melting point: 235 to 237 °C
- IC50 [1]: 2 nM

Structure (SMILES): COc1ccccc1CNC1COCCn2c1nc(-c1ccncn1)cc2=O (racemic) [compound No. 21, (+/−)-9-(2-Methoxy-benzylamino)-2-pyrimidin-4-yl-5,6,8,9-tetrahydro-7-oxa-1,4a-diaza-benzocyclohepten-4-one]
- IC50 [1]: 41 nM

— patent US8507470B2, “Substituted arylamide oxazepinopyrimidone derivatives” (Sanofi, priority 2008, dated 2013)
